Data from US20260206761A1, “HETEROARYL-TRIAZOLE COMPOUNDS AS PESTICIDES” (Bayer Aktiengesellschaft, priority 2019, published 2026).

Key:
Format in all cases: in vivo
[1] = tested on: Rhipicephalus microplus larvae (strain Parkhurst, resistant against synthetic pyrethroids); experiment: Rhipicephalus (Boophilus) microplus in-vitro contact test, larval cattle tick; settings: after 48 hours, read-out: activity (efficacy: larvae dead or moribund); for pest or weed control at 100 g/ha: application rate 1 pg/cm^2 (=100 g/ha); for pest or weed control at 500 g/ha: application rate 5 pg/cm^2 (=500 g/ha)
Summary of the method: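 Larvae (20-50 per tube) exposed to dry compound film on glass tube walls, 5 μg/cm^2 at 900 ppm, applied from acetone. After 48 h at 27° C./85% RH, tubes tapped and negative geotaxis scored; efficacy as percent dead or moribund larvae.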

[2] = tested on: adult engorged female ticks (Rhipicephalus microplus); experiment: Rhipicephalus (Boophilus) microplus injection test; settings: 168 h, egg deposition after 7 days, read-out: activity (efficacy: infertile eggs); for pest or weed control at 4 pg: application rate 4 pg/animal; for pest or weed control at 0.02 mg: application rate 20 μg/animal
Summary of the method: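 Abdominal injection, 1 μL compound/DMSO, n=5 engorged adult females; climate-chamber incubation. Readout d7: fertile egg laying; doubtful eggs held to hatch (~42 d). % efficacy = infertile eggs (100% all infertile).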

[3] = tested on: adult unfed cat fleas (Ctenocephalides felis); experiment: Ctenocephalides felis oral test; settings: 48 h, read-out: activity (mortality)
Description: Ctenocephalides felis—Oral Test
Solvent: dimethyl sulfoxide
To produce a suitable preparation of active compound, 10 mg of active compound are dissolved in 0.5 mL solvent, and the concentrate is diluted with cattle blood to the desired concentration.
Approximately 20 adult unfed cat fleas (Ctenocephalides felis) are placed in flea chambers. The blood chamber, sealed with parafilm on the bottom, are filled with cattle blood supplied with compound solution and placed on the gauze covered top of the flea chamber, so that the fleas are able to suck the blood. The blood chamber is heated to 37° C. whereas the flea chamber is kept at room temperature.
After 2 days mortality in % is determined. 100% means all the fleas have been killed; 0% means none of the fleas have been killed.

[4] = tested on: adult brown dog ticks (Rhipicephalus sanguineus); experiment: Rhipicephalus sanguineus in-vitro contact test, adult brown dog ticks; settings: after 48 hours, read-out: activity (efficacy: ticks dead or moribund); for pest or weed control at 100 g/ha: application rate 1 pg/cm^2 (=100 g/ha); for pest or weed control at 5 µg/cm2, 500 g/ha: application rate 5 μg/cm^2 (=500 g/ha)
Summary of the method: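 Read-out: % efficacy as dead or moribund ticks, judged 48 h after exposure by failure to climb away from a 45-50° C heating plate within 5 min. Tubes were coated with acetone solution (900 ppm = 5 μg/cm^2 surface dose) and held 5-10 adults each at room temperature.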

[5] = tested on: larvae of the banded cucumber beetle (Diabrotica balteata); experiment: Diabrotica balteata spray test; settings: 168 h, application rate 100 g/ha (=32 pg/well), after 7 days, read-out: activity (efficacy: seedlings grown)
Summary of the method: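 Read-out is % efficacy at day 7, 0% meaning no seedling growth and 100% growth equal to uninfested untreated controls. Test solutions (acetone/DMF concentrate diluted with water carrying 1000 ppm emulsifier) were sprayed onto 1-day-germinated wheat seeds, 5 per well, before infestation with 10-20 larvae.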

[6] = tested on: green peach aphid (Myzus persicae); experiment: Myzus persicae oral test; settings: 120 h, application rate 4 ppm, after 5 days
Summary of the method: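 Readout: % mortality at day 5, where 100% = all aphids dead and 0% = none dead. Feeding via parafilm membrane over compound in IPL41 medium (33%+15% sugar); mixed-age population. Stock in acetone (1:100 w/w), water-diluted.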

[7] = tested on: fall armyworm larvae (Spodoptera frugiperda); experiment: Spodoptera frugiperda spray test; settings: 168 h, read-out: activity (mortality)
Summary of the method: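 Larvae of fall armyworm placed on dried maize leaf sections previously sprayed with emulsified compound (acetone/DMF solvent, water with 1000 ppm emulsifier). Percent of caterpillars killed recorded on day 7, 0–100% scale.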

[8] = tested on: adult cat fleas (Ctenocephalides felis); experiment: Ctenocephalides felis in-vitro contact test, adult cat flea; settings: application rate 5 μg/cm^2 (=500 g/ha), after 48 hours, read-out: activity (efficacy: fleas dead or moribund)
Description: Ctenocephalides felis—In-Vitro Contact Tests Adult Cat Flea
9 mg compound is solved in 1 mL acetone and diluted with acetone to the desired concentration. 250 μL of the test solution is filled in 25 mL glass test tubes and homogeneously distributed on the inner walls by rotation and tilting on a shaking device (2 h at 30 rpm). With a compound concentration of 900 ppm, an inner surface of 44.7 cm^2 and a homogeneous distribution, a dose of […] is achieved.
After the solvent has evaporated, each test tube is filled with 5-10 adult cat fleas (Ctenocephalides felis), closed with a perforated lid and incubated in a lying position at room temperature and relative humidity. After 48 hours efficacy is determined. The fleas are patted on the ground of the tubes and are incubated on a heating plate at 45-50° C. for at most 5 minutes. Immotile or uncoordinated moving fleas, which are not able to escape the heat by climbing upwards, are marked as dead or moribund.
An efficacy of 100% means all fleas are dead or moribund; 0% means no fleas are dead or moribund.

[9] = tested on: green peach aphid (Myzus persicae); experiment: Myzus persicae spray test; settings: 120 h, after 5 days; for mortality at 100 g/ha: application rate 100 g/ha; for mortality at 500 g/ha: application rate 500 g/ha
Description: Myzus persicae—Spray Test
Solvent: 78.0 parts by weight acetone • 1.5 parts by weight dimethylformamide
Emulsifier: alkylarylpolyglycol ether
To produce a suitable preparation of active compound, 1 part by weight of active compound is mixed with the stated amount of solvents and is diluted with water, containing an emulsifier concentration of 1000 ppm, to the desired concentration. Further test concentrations are prepared by dilution with emulsifier containing water.
Chinese cabbage (Brassica pekinensis) leaf disks infected with all instars of the green peach aphid (Myzus persicae), are sprayed with a preparation of the active ingredient of the desired concentration.
After 5 days mortality in % is determined. 100% means all aphids have been killed and 0% means none of the aphids have been killed.

[10] = tested on: larvae of the southern green stink bug (Nezara viridula); experiment: Nezara viridula spray test; settings: 96 h, after 4 days; for mortality at 100 g/ha: application rate 100 g/ha; for mortality at 500 g/ha: application rate 500 g/ha
Summary of the method: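 Larva-infested barley (Hordeum vulgare) plants received a spray of test solution prepared from an acetone/DMF concentrate diluted in emulsifier-containing water (1000 ppm). Percent kill read 4 days later; 0% means no stink bugs dead.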

[11] = tested on: Aedes aegypti strain MONHEIM; experiment: Aedes aegypti test (AEDSAE surface treatment & contact assay); settings: 24 hours after contact, read-out: efficacy (mortality); for mortality at 4 mg/m2: surface concentration 4 mg/m^2, exposure 30 minutes
Description: Aedes aegypti Test (AEDSAE Surface Treatment & Contact Assay)
Solvent: Aceton+2000 ppm rapeseed oil methyl ester (RME)
In order to produce a sufficient, active ingredient containing solution it is necessary to solve the test compound in the solvent-mix (acetone at 2 mg/ml/RME 2000 ppm). This solution is pipetted onto a glazed tile and after evaporation of the acetone, adult mosquitoes of the species Aedes aegypti strain MONHEIM are placed onto the dried surface. The exposure time is 30 minutes. Mortality in percent (%) is determined 24 hours after contact of the insects to the treated surface. 100% mortality means that all tested insects are dead, whereas 0% means that no insect died.

Row | SMILES | pest or weed control at 100 g/ha [1] [%] | pest or weed control at 500 g/ha [1] [%] | pest or weed control at 4 pg [2] [%] | pest or weed control at 0.02 mg [2] [%] | mortality at 100 ppm [3] [%] | pest or weed control at 100 g/ha [4] [%] | pest or weed control at 5 µg/cm2, 500 g/ha [4] [%] | pest or weed control at 100 g/ha [5] [%] | mortality at 4 ppm [6] [%] | mortality at 100 g/ha [7] [%] | pest or weed control at 5 µg/cm2 [8] [%] | mortality at 100 g/ha [9] [%] | mortality at 100 g/ha [10] [%] | mortality at 500 g/ha [9] [%] | mortality at 500 g/ha [10] [%] | mortality at 4 mg/m2 [11] [%] | mortality at 20 mg/m2 ([11]; surface concentration 20 mg/m^2, exposure 30 minutes) [%]
1 | CC(C)c1nc([C@H](C)NC(=O)c2cc(Cl)cc(S(C)(=O)=O)c2)n(-c2ccc(C#N)cn2)n1 [I-16] | 100 | 100 | 100 | 100 | 100 | 100 | 100 | 80 | 100 | 100 |  |  |  |  |  |  | 
2 | CC(NC(=O)c1cc(Cl)cc(S(C)(=O)=O)c1)c1nc(Cl)nn1-c1ccc(C#N)cn1 (stereo not drawn) [I-32] | 100 | 100 | 100 | 100 | 100 |  |  |  |  | 100 | 100 |  |  |  |  |  | 
3 | CC(NC(=O)c1cc(Cl)cc(S(C)(=O)=O)c1)c1nc(I)nn1-c1ncccn1 (stereo not drawn) [I-41] |  |  |  |  |  |  |  | 100 | 100 |  |  | 100 | 100 |  |  |  | 
4 | CC(NC(=O)c1cc(OC(F)(F)F)cc(C2CC2)c1)c1nc(I)nn1-c1ncccn1 (stereo not drawn) [I-43] | 100 | 100 |  |  |  | 100 | 100 | 100 | 100 | 100 |  | 100 | 100 |  |  |  | 
5 | COc1nc([C@H](C)NC(=O)c2cc(Cl)cc(S(=O)(=O)C(F)(F)F)c2)n(-c2ccc(Cl)cn2)n1 [I-52] |  |  |  |  |  |  |  |  |  | 83 | 90 |  |  |  |  |  | 
6 | C[C@H](NC(=O)c1cc(F)cc(S(C)(=O)=O)c1)c1nc(C2CC2)nn1-c1ccc(C#N)cn1 [I-63] |  |  |  |  |  |  |  | 100 | 100 | 100 |  | 90 | 100 |  |  |  | 
7 | C[C@H](NC(=O)c1cc(F)cc(S(C)(=O)=O)c1)c1nc(C2CC2)nn1-c1ncc(Cl)cn1 [I-66] |  |  |  |  |  |  |  | 100 | 100 | 100 |  | 100 | 100 | 100 | 100 |  | 
8 | C[C@H](NC(=O)c1cc(C(F)F)cc(S(C)(=O)=O)c1)c1nc(C2CC2)nn1-c1ncc(Cl)cn1 [I-67] |  |  |  |  |  |  |  | 100 | 100 | 100 |  | 90 | 100 | 100 | 100 |  | 
9 | COc1nc([C@H](C)NC(=O)c2cc(C(F)F)cc(C3CC3)c2)n(-c2ccc(C#N)cn2)n1 [I-70] | 100 | 100 |  |  |  |  | 80 |  |  |  | 80 |  |  |  |  |  | 
10 | COc1nc([C@H](C)NC(=O)c2cc(Cl)cc(S(=O)(=O)C3CC3)c2)n(-c2ncc(Cl)cn2)n1 [I-79] |  |  |  |  |  |  |  |  | 100 | 100 |  | 90 | 90 |  | 100 |  | 
11 | COc1nc([C@H](C)NC(=O)c2cc(OC(F)(F)F)cc(S(=O)(=O)C3CC3)c2)n(-c2ncc(Cl)cn2)n1 [I-91] |  |  |  |  |  |  |  | 100 |  | 100 |  | 90 |  |  | 100 |  | 
12 | COc1nc([C@H](C)NC(=O)c2cc(C(F)F)cc(S(=O)(=O)C3CC3)c2)n(-c2ccc(Cl)cn2)n1 [I-94] |  |  |  |  |  |  |  | 100 |  | 100 |  | 90 |  |  | 100 |  | 
13 | CCS(=O)(=O)c1cc(C(=O)N[C@@H](C)c2ncnn2-c2ccc(Cl)cn2)cc(C(F)(F)F)c1 [II-45] | 100 | 100 | 100 | 100 | 100 |  |  | 100 |  |  | 80 |  | 100 |  |  | 80 to 100 | 
14 | C[C@H](NC(=O)c1cc(C#N)cc(C2CC2)c1)c1ncnn1-c1ccc(C#N)cn1 [II-53] | 80 | 80 |  |  | 100 |  |  |  |  | 83 | 100 |  |  |  |  | 80 to 100 | 80 to 100
15 | C[C@H](NC(=O)c1cc(I)cc(C2CC2)c1)c1ncnn1-c1ccc(C#N)cn1 [II-58] | 100 | 100 | 100 |  | 100 | 100 | 100 | 100 |  | 100 | 80 |  |  |  |  |  | 
16 | C[C@H](NC(=O)c1cc(Br)cc(C2CC2)c1)c1ncnn1-c1ccc(C#N)cn1 [II-59] | 100 | 100 | 80 |  |  | 100 | 100 | 100 | 100 | 100 | 100 |  |  |  |  |  | 
